Test results as given in patent US20250281609A1, “COMPOSITION FOR TREATING OR PREVENTING CANCER” (ORGANOIDSCIENCES LTD., priority 2021, published 2025).

How the values were obtained:
[1] = system: colorectal cancer organoids xenograft tumors; assay: Mouse tumor xenograft model using colorectal cancer organoids, humanized with PBMCs; format: in vivo; conditions: harvested tumor tissues, FIG. 10
Description: Specifically, monotherapy with an HVEM inhibitor, monotherapy with a BTLA inhibitor, monotherapy with an HSP inhibitor, combination therapy with an HVEM inhibitor and an HSP inhibitor, combination therapy with a BTLA inhibitor and an HSP inhibitor, or combination therapy with an HVEM inhibitor, a BTLA inhibitor, and an HSP inhibitor was administered to a mouse tumor xenograft model using colorectal cancer organoids. In addition, since the effect of inhibitors of HVEM and its ligand requires the presence of immune cells, PBMCs were introduced into the mice bearing the xenograft tumors to generate humanized mice. The inhibitors were administered a total of four times on days 15, 18, 21, and 24 after tumor transplantation.
As an HVEM (Herpesvirus entry mediator) inhibitor, an anti-HVEM antibody (CW10, Santa Cruz, #sc-21718) was used at a dose of 1 mg/kg; as an inhibitor of the HVEM ligand, an anti-BTLA antibody (Mybiosource, #MBS633646) was used at a dose of 1 mg/kg; and as an HSP (heat shock protein) inhibitor, Luminespib (AUY922, Selleck, #s1069; targeting HSP90) was used at a dose of 0.5 mg/kg.
From day 7 after tumor implantation, tumor size was measured three times per week. After completion of the experiment, the shape of the harvested tumors was analyzed, and tumor weight was measured. […]

[2] = system: colorectal cancer organoids; assay: Colorectal cancer organoid viability (growth rate and death rate); format: cell-based, human; conditions: for increase in efficacy (cancer organoid death) of the combination of the HVEM inhibitor with the HSP inhibitor compared to HVEM inhibitor alone: 72 hours after treatment, FIG. 6
Description: To evaluate whether the combination of HVEM inhibitor and HSP inhibitor exerts a synergistic effect as a cancer preventive or therapeutic agent, we conducted the following experiment. Specifically, colorectal cancer organoids were treated with either an HVEM inhibitor alone, an HSP inhibitor alone, or a combination of both. The anticancer efficacy of the combination treatment was assessed by measuring cancer organoid viability.
For HVEM inhibitor, anti-HVEM antibodies (CW10, Santa Cruz, #sc-21718; R&D Systems, #MAB356-SP) were used at 10 nM. For inhibitor of HVEM ligands, anti-BTLA antibodies (Mybiosource, #MBS633646; Adipogen, #AG-20B-0049) were used at 10 nM. For HSP inhibitors, Luminespib (AUY922, Selleck, #s1069; HSP90-targeting), Ganetespib (STA-9090, Selleck, #s1159; HSP90-targeting), Tanespimycin (17-AAG, Selleck, #s1141; HSP90-targeting), BIIB021 (Selleck, #s1175; HSP90-targeting), Onalespib (AT13387, Selleck, #s1163; HSP90-targeting), HSP990 (#s7097; Selleck, HSP90-targeting), KNK437 (#s7750; Selleck, HSP40-targeting), and VER-155008 (Selleck, #s7751; HSP70-targeting) were used.
The viability of cancer organoids was assessed through growth rate and death rate of cancer organoids as follows.

[3] = colorectal cancer organoids, increasing concentrations

| Compound | hCD8+ T cells infiltrated into the tumor tissue (IHC) [1] | increase in cancer organoid death rate, high concentration vs low concentration ([2]; 100 nM or higher compared to 1 to 5 nM) [fold] | increase in efficacy (cancer organoid death) of the combination of the HVEM inhibitor with the HSP inhibitor compared to HVEM inhibitor alone ([2]; colorectal cancer organoids) | cancer organoid death rate [2, 3] | growth rate of cancer organoids over time [2, 3] |
| --- | --- | --- | --- | --- | --- |
| CCNC(=O)c1noc(-c2cc(C(C)C)c(O)cc2O)c1-c1ccc(CN2CCOCC2)cc1 [AUY922, Luminespib] | barely detected | > 3.6 | ≥ 3.4 fold | increased cancer organoids death rate | reduced growth over time |
| CC(C)c1cc(-c2n[nH]c(=O)n2-c2ccc3c(ccn3C)c2)c(O)cc1O [STA-9090, Ganetespib] | – | – | approximately 2.9 fold | – | – |
| C=CCNC1=C2C[C@@H](C)C[C@H](OC)[C@H](O)[C@@H](C)/C=C(\C)[C@H](OC(N)=O)[C@@H](OC)/C=C\C=C(/C)C(=O)NC(=CC1=O)C2=O [17-AAG, Tanespimycin] | – | – | approximately 2.9 fold | – | – |
